In patent publication EP4781984A1 (Beyang Therapeutics Co., Ltd., priority 2023, dated 2025):
Converted amounts (≈) assume the structure as drawn.

How the values were obtained:
VEGFR2 = biological target: T1, VEGFR2 (Homo sapiens, UniProt P35968); assay: Kinase inhibitory activity, Mobility Shift Assay (VEGFR2); type: biochemical
T1 construct: purchased Carna 08-191
Description: (§1) Assay for Inhibitory Activity of Compounds Against VEGFR and EGFR Kinases
(§2) This assay directly monitors the inhibitory activity of compounds on kinase phosphorylation by measuring non-phosphorylated and phosphorylated substrates in the kinase reaction using Mobility Shift Assays/IMAP™ analysis. Table 2. Reagents and Instruments
(§3) Kinase and DTT were added to 1X kinase buffer to form a 2.5X kinase solution; 10 µL of the 2.5X kinase solution was transferred to a 384-well reaction plate, and 1X kinase buffer was added to the negative control wells. The plate was incubated at room temperature for 10 minutes; FAM-labeled peptide, MgCl2, ATP, and other reagents were added to 1X kinase buffer to form a 2.5X substrate solution; 10 µL of the above 2.5X substrate solution was transferred to the 384-well reaction plate; the plate was incubated at 28°C for varying times, and then 25 µL of stop solution was added to the 384-well reaction plate to terminate the reaction. Conversion rate data were read on a CaliperEZ Reader II. […] IC50 values were fitted using XLFit excel add-in version 5.4.0.8. Y = Bottom + (Top−Bottom)/(1 + […]) [formula]
(§4) X is the log value of compound concentration, Y is the inhibition rate (% inhibition).

EGFR = biological target: T2, EGFR (Homo sapiens, UniProt P00533); assay: Kinase inhibitory activity, Mobility Shift Assay (EGFR); type: biochemical
T2 construct: purchased Carna 08-115
Procedure, shortened: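 Each kinase pre-incubated 10 min at room temperature, then FAM-labelled peptide with MgCl2 and ATP added; reaction at 28 °C for kinase-dependent times before stop. Substrate conversion read by mobility shift; IC50 from a four-parameter fit of % inhibition against log concentration.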

VEGFR1 = biological target: T3, VEGFR1 (Homo sapiens, UniProt P17948); assay: Kinase inhibitory activity, Mobility Shift Assay (VEGFR1); type: biochemical
T3 construct: purchased Invitrogen PR6731B
Description: as §1, §2, §3, §4

VEGFR3 = biological target: T4, VEGFR3 (Homo sapiens, UniProt P35916); assay: Kinase inhibitory activity, Mobility Shift Assay (VEGFR3); type: biochemical
T4 construct: purchased Invitrogen PV4129
Description: as §1, §2, §3, §4

[1] = Thermodynamic solubility test; type: physicochemical; details: buffer solution, aqueous buffer, thermodynamic from solid; thermodynamic solubility, room temperature, 8 hours shaking; buffers pH 2.0, 6.5, 7.4 used, pH of the tabulated value not given
Procedure, shortened: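 Samples sonicated 10 min, shaken 8 h at room temperature, re-sonicated and centrifuged at 13000 rpm for 15 min. Supernatant recentrifuged and analysed by LC-MS, with concentrations quantified against a 3–5 point calibration curve.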

melanin = assay: Compound binding to melanin; type: in vitro ADME; details: cuttlefish (Sepia officinalis), melanin suspension (1 mg/mL), percentage of free drug (not bound to melanin), 2 µM compound, melanin 1 mg/mL in PBS pH 7.4, 37°C
Procedure, shortened: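 Compound at 2 µM final incubated with 1 mg/mL Sepia melanin in PBS pH 7.4, 37°C, 2 hours with shaking; blank in PBS with 0.1% BSA. Supernatant concentration by LC-MS/MS. Fb = 100 − (Ctest/Ccontrol) × 100%.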

T2 sequence (P00533 25-1210): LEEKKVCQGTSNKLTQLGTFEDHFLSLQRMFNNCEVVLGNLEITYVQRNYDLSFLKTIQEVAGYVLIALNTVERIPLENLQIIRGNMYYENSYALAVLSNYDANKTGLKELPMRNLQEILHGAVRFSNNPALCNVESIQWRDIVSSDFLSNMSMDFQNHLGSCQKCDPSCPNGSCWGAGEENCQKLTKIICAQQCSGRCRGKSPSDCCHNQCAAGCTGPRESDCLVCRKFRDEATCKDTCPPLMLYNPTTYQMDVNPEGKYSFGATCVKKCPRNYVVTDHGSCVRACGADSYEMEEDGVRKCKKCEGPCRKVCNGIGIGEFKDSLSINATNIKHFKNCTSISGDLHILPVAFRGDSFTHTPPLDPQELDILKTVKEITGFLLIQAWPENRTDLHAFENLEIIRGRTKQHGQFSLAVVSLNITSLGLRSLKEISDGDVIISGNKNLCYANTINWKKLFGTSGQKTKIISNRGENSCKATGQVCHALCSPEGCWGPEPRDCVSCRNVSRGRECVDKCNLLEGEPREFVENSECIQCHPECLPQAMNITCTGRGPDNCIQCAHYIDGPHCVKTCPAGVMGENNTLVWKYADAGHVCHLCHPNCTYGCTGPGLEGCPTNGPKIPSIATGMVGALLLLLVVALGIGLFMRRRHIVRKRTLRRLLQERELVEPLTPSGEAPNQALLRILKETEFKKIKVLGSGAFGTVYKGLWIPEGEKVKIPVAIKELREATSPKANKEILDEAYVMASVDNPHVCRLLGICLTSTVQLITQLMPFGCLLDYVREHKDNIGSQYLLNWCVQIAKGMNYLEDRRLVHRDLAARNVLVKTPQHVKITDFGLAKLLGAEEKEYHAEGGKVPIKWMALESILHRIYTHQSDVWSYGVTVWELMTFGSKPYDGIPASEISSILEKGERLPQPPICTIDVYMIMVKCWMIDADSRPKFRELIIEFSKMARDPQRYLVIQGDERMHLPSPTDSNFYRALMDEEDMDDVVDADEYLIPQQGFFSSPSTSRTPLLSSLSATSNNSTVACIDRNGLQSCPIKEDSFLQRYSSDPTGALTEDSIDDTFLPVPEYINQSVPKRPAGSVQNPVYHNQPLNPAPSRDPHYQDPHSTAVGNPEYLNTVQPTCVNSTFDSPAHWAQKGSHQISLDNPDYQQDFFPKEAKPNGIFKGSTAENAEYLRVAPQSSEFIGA
T4 sequence (P35916 25-1363): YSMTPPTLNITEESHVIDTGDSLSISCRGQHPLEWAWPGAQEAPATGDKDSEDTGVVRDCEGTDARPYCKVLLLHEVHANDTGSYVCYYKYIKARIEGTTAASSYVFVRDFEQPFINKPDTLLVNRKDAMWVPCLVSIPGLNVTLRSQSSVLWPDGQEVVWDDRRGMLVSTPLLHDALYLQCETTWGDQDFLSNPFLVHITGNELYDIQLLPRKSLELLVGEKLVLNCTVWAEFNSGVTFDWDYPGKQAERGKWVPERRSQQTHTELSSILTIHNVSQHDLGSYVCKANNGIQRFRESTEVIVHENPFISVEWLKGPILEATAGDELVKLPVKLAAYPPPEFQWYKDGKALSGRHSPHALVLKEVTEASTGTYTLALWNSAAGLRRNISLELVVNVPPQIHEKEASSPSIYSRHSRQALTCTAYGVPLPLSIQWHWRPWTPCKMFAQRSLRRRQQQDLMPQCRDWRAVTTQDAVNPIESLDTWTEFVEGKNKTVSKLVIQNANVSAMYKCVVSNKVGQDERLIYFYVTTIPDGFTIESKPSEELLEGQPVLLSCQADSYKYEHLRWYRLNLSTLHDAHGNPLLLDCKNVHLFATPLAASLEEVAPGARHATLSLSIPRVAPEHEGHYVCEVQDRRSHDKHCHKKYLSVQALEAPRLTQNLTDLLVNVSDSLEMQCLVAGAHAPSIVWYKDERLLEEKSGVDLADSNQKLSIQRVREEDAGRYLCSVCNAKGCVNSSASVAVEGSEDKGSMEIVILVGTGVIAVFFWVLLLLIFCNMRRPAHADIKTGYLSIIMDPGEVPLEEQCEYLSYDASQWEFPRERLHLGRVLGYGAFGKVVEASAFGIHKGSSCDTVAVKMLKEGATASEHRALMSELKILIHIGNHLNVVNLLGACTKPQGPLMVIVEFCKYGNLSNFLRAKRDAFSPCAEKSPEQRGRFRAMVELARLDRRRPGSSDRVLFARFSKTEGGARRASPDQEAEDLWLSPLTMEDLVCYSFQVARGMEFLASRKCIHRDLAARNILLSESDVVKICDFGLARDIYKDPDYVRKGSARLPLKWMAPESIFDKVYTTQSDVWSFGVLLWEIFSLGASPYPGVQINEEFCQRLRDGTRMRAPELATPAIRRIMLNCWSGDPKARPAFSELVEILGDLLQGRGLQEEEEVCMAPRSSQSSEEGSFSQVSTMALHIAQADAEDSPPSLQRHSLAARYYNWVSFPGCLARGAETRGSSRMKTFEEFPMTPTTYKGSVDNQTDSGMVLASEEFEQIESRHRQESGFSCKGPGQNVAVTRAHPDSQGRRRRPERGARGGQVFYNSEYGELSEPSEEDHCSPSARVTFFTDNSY
T1 sequence (P35968 20-1356): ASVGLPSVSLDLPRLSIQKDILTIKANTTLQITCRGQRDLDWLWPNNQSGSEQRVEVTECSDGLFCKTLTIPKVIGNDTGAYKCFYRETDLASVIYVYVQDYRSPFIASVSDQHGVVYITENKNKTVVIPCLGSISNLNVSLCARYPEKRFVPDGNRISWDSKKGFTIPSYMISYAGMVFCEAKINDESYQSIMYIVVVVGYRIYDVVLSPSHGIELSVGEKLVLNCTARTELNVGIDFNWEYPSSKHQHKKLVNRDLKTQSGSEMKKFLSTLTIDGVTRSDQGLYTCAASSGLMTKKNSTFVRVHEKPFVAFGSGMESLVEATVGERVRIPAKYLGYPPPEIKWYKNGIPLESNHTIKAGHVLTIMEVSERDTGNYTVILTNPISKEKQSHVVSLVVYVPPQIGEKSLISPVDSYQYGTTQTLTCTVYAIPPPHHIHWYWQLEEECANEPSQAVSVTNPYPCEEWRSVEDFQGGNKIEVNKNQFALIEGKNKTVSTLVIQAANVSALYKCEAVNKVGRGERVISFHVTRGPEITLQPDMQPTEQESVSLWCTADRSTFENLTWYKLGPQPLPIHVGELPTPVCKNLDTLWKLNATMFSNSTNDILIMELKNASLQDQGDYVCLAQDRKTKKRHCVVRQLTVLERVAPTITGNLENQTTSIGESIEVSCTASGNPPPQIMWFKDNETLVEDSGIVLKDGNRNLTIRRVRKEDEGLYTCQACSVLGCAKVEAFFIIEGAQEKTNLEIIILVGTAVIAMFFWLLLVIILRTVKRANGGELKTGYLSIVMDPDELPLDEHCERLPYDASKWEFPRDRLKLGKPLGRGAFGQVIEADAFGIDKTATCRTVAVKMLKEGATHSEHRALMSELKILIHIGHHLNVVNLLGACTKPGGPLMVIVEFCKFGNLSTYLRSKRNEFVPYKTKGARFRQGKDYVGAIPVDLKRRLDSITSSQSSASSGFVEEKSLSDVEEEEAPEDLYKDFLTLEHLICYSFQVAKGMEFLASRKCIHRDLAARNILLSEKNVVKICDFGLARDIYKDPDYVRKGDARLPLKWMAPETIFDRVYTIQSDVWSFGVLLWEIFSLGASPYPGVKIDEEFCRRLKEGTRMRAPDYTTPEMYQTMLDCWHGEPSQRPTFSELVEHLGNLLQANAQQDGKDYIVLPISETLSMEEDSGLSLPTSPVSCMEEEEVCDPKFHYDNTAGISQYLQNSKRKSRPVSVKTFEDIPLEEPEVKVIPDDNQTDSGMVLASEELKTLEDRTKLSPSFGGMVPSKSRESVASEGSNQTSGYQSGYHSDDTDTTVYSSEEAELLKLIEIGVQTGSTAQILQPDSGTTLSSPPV

SMILES | IC50 (VEGFR2) | IC50 (EGFR) | IC50 (VEGFR1) | IC50 (VEGFR3) | solubility at 8 h [1] | fraction unbound at 2 h, 2 µM (melanin)
CNC(=O)c1ccccc1Sc1ccc2c(/C=C/c3ccc(OCC4CCN(C)C4)cn3)n[nH]c2c1 (stereo not shown) [Compound I-1] | ≤ 1 nM | 6000 to 60000 nM | ≤ 1 nM | ≤ 1 nM | 14.2 µg/mL (≈ 28.4 µM) | > 0.05
CNC(=O)c1ccccc1Sc1ccc2c(/C=C/c3ccc(OCC4CCCN4C)cn3)n[nH]c2c1 (stereo not shown) [Compound I-2, N-methyl-2-((3-((E)-2-(5-((1-methylpyrrolidin-2-yl)methoxy)pyridin-2-yl)ethenyl)-1H-indazol-6-yl)thio)benzamide] | ≤ 1 nM | 6000 to 60000 nM | ≤ 1 nM | 1 to 10 nM | 28.8 µg/mL (≈ 57.6 µM) | 0.01 to 0.05
CNC(=O)c1ccccc1Sc1ccc2c(/C=C/c3ccccn3)ncn2c1 [Compound I-26, N-methyl-2-({1-[(E)-2-(pyridin-2-yl)ethenyl]imidazo[1,5-a]pyridin-6-yl}thio)benzamide] | > 100 nM | > 60000 nM | > 100 nM | > 100 nM | 142 µg/mL (≈ 367 µM) | 0.01 to 0.05
CNC(=O)c1ccccc1Sc1ccc2c(cnn2-c2ccc(OCCN3CCCC3)cn2)c1 [Compound I-29, N-methyl-2-[(1-{5-[2-(pyrrolidin-1-yl)ethoxy]pyridin-2-yl}-1H-indazol-5-yl)sulfanyl]benzamide] | > 100 nM | > 60000 nM | > 100 nM | > 100 nM | – | –

More lines, now with the values ahead:

IC50 (VEGFR2) | IC50 (EGFR) | IC50 (VEGFR1) | IC50 (VEGFR3) | solubility at 8 h [1] | fraction unbound at 2 h, 2 µM (melanin) | SMILES
1 to 10 nM | 6000 to 60000 nM | ≤ 1 nM | 1 to 10 nM | 294 µg/mL (≈ 605 µM) | > 0.05 | CNC(=O)c1ccccc1Sc1ccc2c(/C=C/c3ccc(OCC4CCNC4)cn3)n[nH]c2c1 (stereo not shown) [Compound I-7]
> 100 nM | 6000 to 60000 nM | > 100 nM | > 100 nM | – | 0.01 to 0.05 | CNC(=O)c1ccccc1Sc1ccn2c(/C=C/c3ccccn3)ncc2c1 [Compound I-27, N-methyl-2-({3-[(E)-2-(pyridin-2-yl)ethenyl]imidazo[1,5-a]pyridin-7-yl}thio)benzamide]
> 100 nM | ≤ 600 nM | > 100 nM | > 100 nM | – | > 0.05 | O=C(O)c1ccccc1Sc1ccn2c(/C=C/c3ccccn3)ncc2c1 [Compound I-28, 2-({3-[(E)-2-(pyridin-2-yl)ethenyl]imidazo[1,5-a]pyridin-7-yl}thio)benzoic acid]
> 100 nM | > 60000 nM | > 100 nM | > 100 nM | 542 µg/mL (≈ 1160 µM) | 0.01 to 0.05 | CNC(=O)c1ccccc1Sc1ccc2c(NC(=O)NCCN3CCN(C)CC3)n[nH]c2c1 [Compound I-31]
≤ 1 nM | 6000 to 60000 nM | ≤ 1 nM | 1 to 10 nM | – | 0.01 to 0.05 | CNC(=O)c1ccccc1Sc1ccc2c(/C=C/c3ccc(OC[C@H]4CCN(C)C4)cn3)n[nH]c2c1 [Compound I-37]
